According to US20210198284A1, “GOLD COMPOSITIONS AND METHODS OF USE THEREOF” (THE UNIVERSITY OF MASSACHUSETTS, priority 2018, published 2021):
Read-outs that look alike come from different tables or passages of the source.

What was measured:
[1] = Log P determination (n-octanol/water, FAAS)
Method: Log P Determination: Calibration curves. Milli-Q Water (150 mL) was added to n-octanol (150 mL), and the mixture was stirred for 3 days to allow both phases to reach saturation. The gold standard solution (1000 ppm Au in hydrochloric acid, Fisher Scientific) was diluted to 1, 2, 3, 4 and 5 ppm with n-octanol-saturated water, and the absorbance of the resulting solutions was measured by flame atomic absorption spectroscopy (FAAS, Agilent Technology 200 Series AA, equipped with a gold HC Lamp-Au coded). The absorbance data were plotted against Au concentration, and the resulting calibration curve was used for determining the concentration of the analogs in the aqueous phase.
To construct the standard calibration curve of the Au concentration in the n-octanol phase, compound 27 was used. The Au concentration in compound 27 was first calibrated against the aqueous gold standard. For this, 0.440 mg of compound 27 was weighed on a Sartorius MC5 microbalance, and then added to 22 mL of n-octanol-saturated water. […] For this, solutions of varying concentrations (0.99, 2.47, 4.94, 5.93, 9.88 ppm) of compound 27 in water-saturated n-octanol were prepared. The absorbance was measured by FAAS, and the data were plotted against the Au concentration to provide a second calibration curve, which was used for determining the Au concentration of the analogs in the n-octanol phase.
Determination of Au concentrations: Method 1. 0.5 to 1 mg of compound was weighed into a 2-mL Eppendorf tube containing 2 mL of n-octanol-saturated water. After shaking for about 4 h, the solution was centrifuged at 6000 rpm for 3 min. 1 mL of the supernatant was transferred to a new tube containing 1 mL of water-saturated n-octanol, and the mixture was shaken for 1 h. After centrifugation at 6000 rpm for 5 min, the two layers were collected and the gold concentration in each layer was determined by FAAS by comparing the absorbance to the first and second calibration curves.
Determination of Au concentrations: Method 2. […] For Method 2, 0.6 to 1 mg of compound was weighed into a 2-mL Eppendorf tube containing 1 mL of n-octanol-saturated water and 1 mL of water-saturated n-octanol. After shaking for 3-4 h, the mixture was centrifuged, and all liquid was transferred to a 15-mL tube. The liquid was then diluted with 2 mL of n-octanol-saturated saturated water and 2 mL of water-saturated n-octanol, and the mixture was shaken for another hour. After centrifugation at 6000 rpm for 5 min, the two layers were collected and the gold concentration in each layer was determined by FAAS by comparing the absorbance to the first and second calibration curves.
Log P was calculated as follows: log P=log[compound]oct/[compound]water

[2] = system: C. neoformans ATCC 208821; experiment: Antifungal MIC; type: cell-based; settings: C. neoforman, strain not named
E. cloacae NCTC 13405 = experiment: Antibacterial assay, MIC/MBC by broth microdilution (CLSI); type: cell-based; settings: E. cloacae NCTC 13405; for MIC: repeated twice, a/b = both values
Method: (§1) Antibacterial assay. The minimum inhibitory concentrations (MICs) and the minimum bactericidal concentrations (MBCs) were determined by the broth microdilution method as described in the CLSI (The Clinical & Laboratory Standards Institute) guidelines (Performance standards for antimicrobial susceptibility testing: Clinical and Laboratory Standards Institute (CLSI), Twenty-Fifth informational supplement. Document M100-S25: […]; Vol. 35). All bacterial strains were cultured in cation-adjusted Muller Hinton broth (CAMHB) up to log-phase and then diluted to give a concentration of 7.5×10^5 CFU/mL. The gold complexes were dissolved in DMSO or water as stock solutions, which were then serially diluted two-fold in a 96-well plate. Aliquots (100 μL) of the dilutions were mixed with equal volumes of the bacterium suspension in a 96 well plate (in triplicates). The plates were incubated at 37° C. for 18 h without shaking. Negative and positive controls were included in the same well plate with wells having the culture medium only and bacteria solution only, respectively. The sample concentration that gave inhibition values above 90% were determined as MICs as calculated from absorbance values at 600 nm (OD600) obtained using a Tecan SPARK IOM plate reader. To determine minimum bactericidal concentrations (MBCs), agar plates were treated with 5 μL sample solutions from each well, and then incubated at 37° C. for 18 h without shaking. The sample concentration that gave no colony formed on agar plates were determined as MBCs.
(§2) Selection of bacteria. The ESKAPE pathogens were chosen as they are responsible for the majority of nosocomial infections and also as they provide a good scope of strains including both Gram-negative and Gram-positive species. A. baumannii NCTC 13420 was originally identified in 24 hospitals in the UK during 2000-2003, which produced OXA-51-like β-lactamases, and was highly resistant to ampicillin, piperacillin, piperacillin/tazobactam, ceftazidime, cefotaxime, gentamicin and ciprofloxacin. P. aeruginosa NCTC13437 produces VIM-10 metallo-carbapenemase and VEB-1 (Vietnamese extended-spectrum beta-lactamase). Wild-type strain E. cloacae NCTC 13405 (originally named E. cloacae 684) was isolated from patients at the London Hospital during 1982-1983. This strain has inducible AmpC β-lactamase and is resistant to ampicillin/amoxicillin and cefoxitin. K. pneumoniae ATCC 700603 was isolated from the urine of a hospitalized patient in Richmond, Va. in 1994, and it produces SHV-18 extended spectrum beta-lactamase (ESBL). JE2 (USA300) is a methicillin-resistant S. aureus (MRSA) strain, also resistant to beta-lactams, ciprofloxacin, tetracycline, macrolides (erythromycin), lincosamides (clindamycin), streptogramin B, and mupirocin. E. faecium ATCC 700221, a positive fecal VRE (vancomycin-resistant enterococcus) isolate, is resistant to several antibiotics including vancomycin and teicoplanin. The quality control strain, Gram-negative E. coli ATCC 25922, was included in all assays and validated with ciprofloxacin and […].

E. faecalis ATCC 700221 = experiment: as above; type: cell-based; settings: for MIC: repeated twice, a/b = both values
Method: as §1, §2

E. coli ATCC 25922 = experiment: as above; type: cell-based; settings: for MIC: repeated twice, a/b = both values
Method: as §1, §2

[3] = system: K. pneumoniae ATCC 700603; experiment: as above; type: cell-based; settings: for MBC (in brackets) / MIC: K. pneumoniae ATCC 700603; for MIC: repeated twice, a/b = both values
Method: as §1, §2

A. baumannii NCTC 13420 = experiment: as above; type: cell-based; settings: A. baumannii NCTC 13420; for MIC: repeated twice, a/b = both values
Method: as §1, §2

P. aeruginosa NCTC 13437 = experiment: as above; type: cell-based; settings: P. aeruginosa NCTC 13437; for MIC: repeated twice, a/b = both values
Method: as §1, §2

S. aureus JE2 (USA300) = experiment: as above; type: cell-based; settings: S. aureus JE2 (USA300); for MIC: repeated twice, a/b = both values
Method: as §1, §2

A549 cells = experiment: Cytotoxicity assay (resazurin); type: cell-based; settings: 20 h, mean±S.E.M. from two independent experiments
Method: Sample preparation. The compounds were dissolved in DMSO at 12.8 mg/mL as the stock solutions, except for compounds 9-17, which were directly dissolved in the culture medium at 12.8 mg/mL. The stock solutions were diluted by the culture medium to the testing concentration at 128 μg/mL (compound 9-17 were diluted to 1,280 μg/mL). The solutions were then serially diluted two fold in a 96-well plate and were used in the cytotoxicity assay immediately.
Cell culture and cytotoxicity assay. A549 cells (ATCC CCL-185) were cultured in high glucose DMEM (Sigma-Aldrich, D6429) supplemented with 10% FBS, 1% penicillin-streptomycin solution (Sigma-Aldrich, P4333), 1% gentamicin solution (Sigma-Aldrich, G1272) and 1% amphotericin B solution (Sigma-Aldrich, A2942) at 37° C. in a humidified atmosphere containing 5% CO2. After cells reached 80%˜90% confluency, they were detached and counted using an Invitrogen Countess automated cell counter. Cells with viability over 90% were seeded at a density of 5×10^3 cells per well in 96-well cell culture plates. After overnight culture, the culture medium in each well removed with a pipet. 80 μL of the compound solutions from each well of the 96-well plate prepared above were transferred to this 96-well plate containing the cells, and the plates were incubated for 20 h. After addition of 8 μL of 110 μg/mL resazurin, the plates were incubated for further 3 h at 37° C. in 5% CO2. The fluorescence intensity was measured using a Tecan M200 Infinite Pro microplate reader at excitation 560 nm, emission 590 nm. IC50 were calculated by curve fitting the inhibition values vs. log(concentration) using GraphPad's Prism. The cytotoxicity assays (in triplicate) were repeated twice using freshly prepared cells and compound solutions.

Molecule | MBC (in brackets) (E. cloacae NCTC 13405) | MIC (E. cloacae NCTC 13405) | MBC (in brackets) (E. faecalis ATCC 700221) | MIC (E. faecalis ATCC 700221) | MBC (in brackets) (E. coli ATCC 25922) | MIC (E. coli ATCC 25922) | MBC (in brackets) [3] | MIC [3] | MBC (in brackets) (A. baumannii NCTC 13420) | MIC (A. baumannii NCTC 13420) | MBC (in brackets) (P. aeruginosa NCTC 13437) | MIC (P. aeruginosa NCTC 13437) | MBC (in brackets) (S. aureus JE2 (USA300)) | IC50 against A549 cells (A549 cells) [µg/mL] | MIC (S. aureus JE2 (USA300)) | Log P ([1]; n-octanol/water, gold by FAAS) | also measured
CC[P+](CC)(CC)[Au-]1[SH](CC2O[C@H](O[C@H]3OC(COC(C)=O)[C@@H](OC(C)=O)C(OC(C)=O)[C@H]3OC(C)=O)C(OC(C)=O)[C@@H](OC(C)=O)[C@@H]2OC(C)=O)[Au]1[PH](CC)(CC)CC (some centres unmarked) [Compound 7] | – | – | – | – | – | – | – | – | – | – | – | – | – | – | – | – | logP [1]: -0.28; antifungal activity in words [2]: moderate antifungal activity
(4-Aminobenzenethiolato)(triethylphosphine) gold(I) [Compound 20] | 36 (36) μM/mL | 36 (36) μM/mL | (0.1) μM/mL | 0.02 μM/mL | 9 (9) μM/mL | 9 (9) μM/mL | 36 (36) μM/mL | 36 (36) μM/mL | 18 (18) μM/mL | 18 (18) μM/mL | 146 (146) μM/mL | 146 (146) μM/mL | 2 (0.07) μM/mL | 6.5 ± 1.1 | – | – | MIC or MIC/MBC, fold lower than auranofin ([3]; K. pneumoniae): 10 fold; MIC/MBC ([3]; K. pneumoniae): 36 µM; Log P [1]: 1.36
(Benzenethiolato)(triethylphosphine) gold(I) [Compound 18] | 603 μM/mL | 75 μM/mL | 1 μM/mL | 0.6 μM/mL | (151) μM/mL | 151 μM/mL | – | >603 μM/mL | (>603) μM/mL | 19/75 | 302 (302) μM/mL | 302 (302) μM/mL | (0.6) μM/mL | 4.3 ± 0.2 | 0.02 μM/mL | – | Log P [1]: 2.20
(Tri-n-butylphosphine) gold chloride [Compound 30] | – | >589 μM/mL | 5 (5) μM/mL | 5 (5) μM/mL | – | >589 μM/mL | 147 (147) μM/mL | 147 (147) μM/mL | (147) μM/mL | 74/147 | 74 (74) μM/mL | 74 (74) μM/mL | 4 μM/mL | 4.7 ± 0.0 | 2 μM/mL | >3.99 | –
(Triethylphosphine) gold chloride [Compound 29] | 23 (23) μM/mL | 23 (23) μM/mL | (0.7) μM/mL | – | 23 (23) μM/mL | 23 (23) μM/mL | 46 (46) μM/mL | 46 (46) μM/mL | 23 μM/mL | 11/23 | 183 μM/mL | 92 μM/mL | 02 (0.2) μM/mL | 9.5 ± 0.1 | – | 1.74 | –
(Tris(4-methoxyphenyl)phosphine) gold chloride [Compound 32] | – | >438 μM/mL | 3 (3) μM/mL | 3 (3) μM/mL | – | >438 μM/mL | – | >438 μM/mL | – | >438 μM/mL | – | >438 μM/mL | 3 μM/mL | 9.4 ± 1.7 | 2 μM/mL | >4.09 | –
(Tris(4-trifluoromethylphenyl)phosphine) gold chloride [Compound 34] | – | >366 μM/mL | – | >366 μM/mL | – | >366 μM/mL | – | >366 μM/mL | – | >366 μM/mL | – | >366 μM/mL | 11 μM/mL | 85.6 ± 26.1 | 3/1 | >3.94 | –
